{"source": "ChEMBL document CHEMBL2311287", "about": "“Selective inhibition of extracellular thioredoxin by asymmetric disulfides” (J Med Chem, 2013)", "key": {"[1]": {"system": "Transglutaminase 2 (Homo sapiens)", "assay": "Inhibition of human recombinant thioredoxin-mediated TG2 activation expressed in T84 cells assessed as blockade of 5-biotinamidopentylamine incorporation at 25 uM after 3 hrs by fluorescence microscopic analysis"}, "[2]": {"target": "T1, Thioredoxin (Homo sapiens, UniProt P10599)", "T1 sequence (P10599 whole entry)": "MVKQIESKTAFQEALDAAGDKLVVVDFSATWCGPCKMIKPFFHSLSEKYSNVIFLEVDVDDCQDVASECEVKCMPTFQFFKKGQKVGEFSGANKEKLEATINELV", "assay": "Inhibition of human recombinant thioredoxin-mediated TG2 activation expressed in T84 cells assessed as blockade of 5-biotinamidopentylamine incorporation after 3 hrs by streptavidin-HRP/TMB absorbance assay"}, "[3]": {"system": "T2, Thioredoxin (Homo sapiens), P10599 [W31A]", "T2 sequence (whole entry)": "T1 sequence (P10599 whole entry) with W31A", "assay": "Inhibition of human thioredoxin W31A mutant"}, "[4]": {"target": "T3, Thioredoxin (Homo sapiens) (UniProt P10599)", "T3 sequence (whole entry)": "T1 sequence (P10599 whole entry)", "assay": "Inhibition of wild type human thioredoxin by insulin turbidity assay", "conditions": "concentration not given here"}}, "note": "Positions count from the first letter of the chain named. pIC50: −log10 of the molar value. The source made the active and inactive calls. No cut-off for these calls is given here.", "data": [{"molecule": "O=C(NC[C@@H]1CC(Br)=NO1)[C@@H]1CCCN1C(=O)OCc1cnc2ccccc2c1", "values": [{"measurement": "inhibition", "setting": "[1]", "value": "Active"}]}, {"molecule": "CCC(C)SSc1ncc[nH]1", "note": "(centres undefined) [PX-12]", "values": [{"measurement": "pIC50", "setting": "[2]", "value": 5.68}]}, {"molecule": "CCC(C)SSc1nc2ccccc2[nH]1", "note": "(centres undefined)", "values": [{"measurement": "Ratio", "setting": "[3]", "value": 1.42, "unit": "µM⁻¹ min⁻¹"}, {"measurement": "inhibition", "setting": "[4]", "value": 78, "unit": "%"}]}]}
